Experimental data as given in patent US8815535B2, “Disk diffusion assay for oritavancin” (The Medicines Company, priority 2011, dated 2014).
“And” between values parts separate entries of the source, which are not always exact repeats. Equal values may be shown once. Read-outs that look alike come from different tables or passages of the source.

Legend:
Assay in all cases: Disk diffusion assay (zone of inhibition)
Type in all cases: cell-based, Staphylococcus aureus
MRSA U206056 = conditions: for zone of inhibition at 360 µg/disc: read-out: Zone diameter (mm ± SD)
Source text: (§1) The study was designed to identify conditions that improve oritavancin diffusion in agar and consequently yield a zone diameter ≧15 mm for the CLSI quality control strain MSSA ATCC 25923. Excipients that increased the disk diffusion of oritavancin in agar relative to disks containing only oritavancin were identified and selected for further study. […] A prediffusion step at room temperature was introduced to maximize oritavancin diffusion prior to initiation of bacterial growth. In this step, the antimicrobial disks were placed on agar plates seeded with a bacterial isolate and incubated at room temperature for 3 hours. Plates were then incubated overnight at 37° C. Zone diameters around the disks in which bacterial growth was inhibited were measured with a ruler and reported in millimeters.
(§2) Ethanol-sterilized Whatman paper disks (6 mm diameter) were allowed to dry then impregnated with 20 microliters of oritavancin solution containing total amounts ranging from 90 to 360 micrograms. Disks were allowed to dry at room temperature for various times prior to use.
(§3) Bacterial suspensions were prepared and adjusted to an optical density of 0.1 at 600 nm. Standard cation-adjusted Mueller Hinton agar plates (90 mm diameter) were seeded with bacterial suspensions by initially swabbing the center of plate then moving outward towards the edge. The plate was swabbed a second time, perpendicular to the orientation of the first swab. To assess the impact of prediffusion on diameter of inhibition zones, two disks were immediately placed on one half of the plate and the plate was incubated for 3 hours at room temperature. After 3 hours, two additional disks were placed on the other half of the plate then the plate was incubated overnight at 37° C. Zone diameters were measured with a ruler and reported in millimeters.
(§4) Oritavancin powder was dissolved in freshly-prepared solutions of the indicated excipients at concentrations of 0.625, 1.25, 2.5, 5, and 10 mg/ml (adjusted for potency based on lot 875561L00 purity of 83.1%) by vortexing for a minimum of 5 minutes. Oritavancin solutions in the various excipients, while not visually clear, were free from any apparent particulates as assessed visually. Sterile Oxoid blank disks were impregnated with 20 μl of these oritavancin solutions, resulting in oritavancin disk loads ranging from 12.5 to 200 μg. Unless indicated otherwise, disks were allowed to dry overnight at room temperature prior to use.
(§5) Bacterial suspensions from isolated colonies on overnight cation-adjusted Mueller Hinton agar plates were prepared in sterile saline and adjusted to an optical density of 0.1 at 600 nm Standard cation-adjusted Mueller Hinton agar plates (90 mm diameter) were seeded with bacterial suspensions by initially swabbing the center of plate then moving outward. Swabbing was continued at a right angle and then at an oblique angle to the first and second swabs. Disks were placed upon the seeded plates with sterile forceps. Plates were then incubated overnight at 37° C. and inhibition zone diameters were measured with a ruler and reported in millimeters.

VISA NRS402 = conditions: for zone of inhibition at 360 µg/disc: Staphylococcus aureus
Source text: as §1, §2, §3, §4, §5

VISA NRS3 = conditions: for zone of inhibition at 360 µg/disc: Staphylococcus aureus, 360 μg oritavancin, 3 h prediffusion, average of 2 disks, read-out: Average zone diameter
Source text: as §1, §2, §3, §4, §5

hVISA NRS2 = conditions: for zone of inhibition at 360 µg/disc / zone of inhibition at 90 µg/disc / zone of inhibition at 180 µg/disc / zone of inhibition at 12.5 µg/disc: Staphylococcus aureus; for zone of inhibition at 90 µg/disc: 90 μg oritavancin; for zone of inhibition at 180 µg/disc: 180 μg oritavancin; for zone of inhibition at 12.5 µg/disc: NRS2, NRS2, 12.5 μg in 4% P80/Span 80 (1:1)
Source text: as §1, §2, §3, §4, §5

[1] = 25 μg (1.25 mg/ml) in 4% P80/Span 80 (1:1), dried overnight
[2] = NRS2, 192 h, NRS2, 2.5% P80, disks stored 8 days, prediffusion, read-out: Average zone diameter
[3] = NRS2, 336 h, NRS2, 5% P80, disks stored 14 days, prediffusion, read-out: Average zone diameter
[4] = NRS2, 336 h, NRS2, 10% P80, disks stored 14 days, prediffusion, read-out: Average zone diameter

For CN[C@H](CC(C)C)C(=O)N[C@H]1C(=O)N[C@@H](CC(N)=O)C(=O)N[C@H]2C(=O)N[C@H]3C(=O)N[C@H](C(=O)N[C@H](C(=O)O)c4cc(O)cc(O)c4-c4cc3ccc4O)[C@H](O[C@H]3C[C@](C)(N)[C@@H](O)[C@H](C)O3)c3ccc(c(Cl)c3)Oc3cc2cc(c3O[C@@H]2O[C@H](CO)[C@@H](O)[C@H](O)[C@H]2O[C@H]2C[C@](C)(NCc3ccc(-c4ccc(Cl)cc4)cc3)[C@@H](O)[C@H](C)O2)Oc2ccc(cc2Cl)[C@H]1O [oritavancin, N-(4-(4-chlorophenyl)benzyl)A82846B], the Inhibition zone diameter (MRSA U206056; [1]) was 17 mm and 18, 18 mm, the zone of inhibition at 25 µg/disc (MRSA U206056; Staphylococcus aureus, MRSA, 25 μg (1.25 mg/ml) in 4% P80/Span 80 (1:1), dried overnight, read-out: Inhibition zone diameter) was 18 mm and the zone of inhibition at 360 µg/disc (MRSA U206056; Staphylococcus aureus, MRSA, 360 μg in 5% P80, Average of experiments, no prediffusion) was 15 ± 0.6 mm. It also gave a zone of inhibition at 360 µg/disc (MRSA U206056; Staphylococcus aureus, MRSA, 360 μg in 5% P80, Average of experiments, prediffusion) of 17.4 ± 0.5 mm, a zone of inhibition at 360 µg/disc (MRSA U206056; Staphylococcus aureus, MRSA, 360 μg in 5% P80, Experiment 1, disks stored 14 days, 3 h prediffusion at room temperature) of 17.8 ± 0.4 mm and a zone of inhibition at 360 µg/disc (MRSA U206056; Staphylococcus aureus, MRSA, 360 μg in 5% P80, Experiment 2, disks stored 8 days, 3 h prediffusion at room temperature) of 17 mm. For the same compound, the zone of inhibition at 360 µg/disc (MRSA U206056; Staphylococcus aureus, MRSA, 192 h, 360 μg in 5% P80, Experiment 2, disks stored 8 days, no prediffusion) was 14.5 mm, the zone of inhibition at 360 µg/disc (MRSA U206056; Staphylococcus aureus, MRSA, 336 h, 360 μg in 5% P80, Experiment 1, disks stored 14 days, no prediffusion) was 15.5 mm and the Inhibition zone diameter (VISA NRS402; [1]) was “no zone”. For the same compound, the zone of inhibition at 360 µg/disc (VISA NRS402; 360 μg in 5% P80, Average of experiments, no prediffusion, read-out: Zone diameter (mm ± SD)) was 13.1 ± 0.3 mm, the zone of inhibition at 360 µg/disc (VISA NRS402; 360 μg in 5% P80, Average of experiments, prediffusion, read-out: Zone diameter (mm ± SD)) was 14.5 ± 0.4 mm and the zone of inhibition at 360 µg/disc (VISA NRS402; 360 μg in 5% P80, Experiment 1, disks stored 14 days, 3 h prediffusion at room temperature, read-out: Zone diameter (mm ± SD)) was 14.8 ± 0.4 mm. The zone of inhibition at 360 µg/disc (VISA NRS402; 360 μg in 5% P80, Experiment 2, disks stored 8 days, 3 h prediffusion at room temperature, read-out: Zone diameter (mm ± SD)) was 14.3 ± 0.4 mm, the zone of inhibition at 360 µg/disc (VISA NRS402; 360 μg oritavancin, excipient 5% P80, disks stored 5 days at room temperature, 3 h prediffusion, average of 2 disks, read-out: Average zone diameter) was 14.8 mm and the zone of inhibition at 360 µg/disc (VISA NRS402; 3 h, 360 μg oritavancin, excipient 10% HPCD, disks made same day, 3 h prediffusion, average of 2 disks, read-out: Average zone diameter) was 17.5 mm. For the same compound, the zone of inhibition at 360 µg/disc (VISA NRS402; 192 h, 360 μg in 5% P80, Experiment 2, disks stored 8 days, no prediffusion, read-out: Zone diameter (mm ± SD)) was 13 mm, the zone of inhibition at 360 µg/disc (VISA NRS402; 336 h, 360 μg in 5% P80, Experiment 1, disks stored 14 days, no prediffusion, read-out: Zone diameter (mm ± SD)) was 13.3 ± 0.4 mm and the Inhibition zone diameter (VISA NRS3; [1]) was “no zone”. The zone of inhibition at 360 µg/disc (VISA NRS3; excipient 5% P80, disks stored 5 days at room temperature) was 14 mm, the zone of inhibition at 360 µg/disc (VISA NRS3; excipient 10% HPCD, disks made same day) was 16.8 mm and the Inhibition zone diameter (hVISA NRS2; NRS2, 25 μg (20 μl of 1.25 mg/ml) in 4% P80/Span 80 (1:1), calcium alginate swab, dried overnight) was 10 mm and 12, 12 mm. For the same compound, the zone of inhibition at 360 µg/disc (hVISA NRS2; NRS2, 3 h, NRS2, 360 μg oritavancin, excipient 10% HPCD, disks made same day, 3 h prediffusion, average of 2 disks, read-out: Average zone diameter) was 17.5 mm, the zone of inhibition at 90 µg/disc (hVISA NRS2; [2]) was 14 mm and the zone of inhibition at 180 µg/disc (hVISA NRS2; [2]) was 14.8 mm. For the same compound, the zone of inhibition at 360 µg/disc (hVISA NRS2; NRS2, 192 h, NRS2, 360 μg in 5% P80, Experiment 2, disks stored 8 days, no prediffusion, read-out: Zone diameter (mm ± SD)) was 14.3 ± 0.4 mm, the zone of inhibition at 360 µg/disc (hVISA NRS2; NRS2, 192 h, NRS2, 360 μg oritavancin, 2.5% P80, disks stored 8 days, prediffusion, read-out: Average zone diameter) was 15 mm and the zone of inhibition at 90 µg/disc (hVISA NRS2; [3]) was 15 mm. For the same compound, the zone of inhibition at 90 µg/disc (hVISA NRS2; [4]) was 15.8 mm, the zone of inhibition at 180 µg/disc (hVISA NRS2; [3]) was 16 mm and the zone of inhibition at 180 µg/disc (hVISA NRS2; [4]) was 16 mm. It also gave a zone of inhibition at 360 µg/disc (hVISA NRS2; NRS2, 336 h, NRS2, 360 μg in 5% P80, Experiment 1, disks stored 14 days, no prediffusion, read-out: Zone diameter (mm ± SD)) of 15.5 mm, a zone of inhibition at 360 µg/disc (hVISA NRS2; NRS2, 336 h, NRS2, 360 μg oritavancin, 5% P80, disks stored 14 days, prediffusion, read-out: Average zone diameter) of 18 mm and a zone of inhibition at 360 µg/disc (hVISA NRS2; NRS2, 336 h, NRS2, 360 μg oritavancin, 10% P80, disks stored 14 days, prediffusion, read-out: Average zone diameter) of 16.5 mm. It also gave a zone of inhibition at 12.5 µg/disc (hVISA NRS2; calcium alginate swab, dried overnight, read-out: Inhibition zone diameter) of 12.5 mm and a zone of inhibition at 12.5 µg/disc (hVISA NRS2; cotton swab, dried overnight, estimate of diameter) of 13 mm.
